Results reported in ChEMBL document CHEMBL1201862, “PubChem BioAssay data set” (2004).
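Protocol summary: plate cells (96-well), add compound at 5 concentrations, incubate 48 h, interpolate endpoints linearly. GI50 = concentration required for 50% inhibition of growth.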 Calls of active or inactive are those of the source. No stated cut-off is given here; in the data, active = GI50 up to about 1.1 µM and inactive = higher.

What was measured:
Experiment in all cases: NCI-60 cell line screen, 48 h
[1] = tested on: OVCAR-4
[2] = tested on: MDA-N
[3] = tested on: MOLT-4
[4] = tested on: MDA-MB-435
[5] = tested on: HOP-62
[6] = tested on: SR
[7] = tested on: BT-549
[8] = tested on: SK-MEL-5
[9] = tested on: SNB-19
[10] = tested on: SK-OV-3
[11] = tested on: HCC 2998
[12] = tested on: LOX IMVI
[13] = tested on: KM12
[14] = tested on: RPMI-8226
[15] = tested on: CCRF-CEM
[16] = tested on: IGROV-1
[17] = tested on: UACC-257
[18] = tested on: M14
[19] = tested on: SK-MEL-28
[20] = tested on: OVCAR-3
[21] = tested on: Malme-3M
[22] = tested on: ACHN
[23] = tested on: CAKI-1
[24] = tested on: A549
[25] = tested on: SNB-75
[26] = tested on: HCT-116
[27] = tested on: MDA-MB-231
[28] = tested on: NCI-H522
[29] = tested on: PC-3
[30] = tested on: COLO 205
[31] = tested on: U-251
[32] = tested on: T47D
[33] = tested on: Hs-578T
[34] = tested on: HT-29
[35] = tested on: UO-31
[36] = tested on: UACC-62
[37] = tested on: HOP-92
[38] = tested on: OVCAR-5
[39] = tested on: SK-MEL-2
[40] = tested on: SF-268
[41] = tested on: 786-0
[42] = tested on: NCI-H460
[43] = tested on: HL-60
[44] = tested on: NCI-H23
[45] = tested on: DU-145
[46] = tested on: SN12C
[47] = tested on: SW-620
[48] = tested on: EKVX
[49] = tested on: SF-295
[50] = tested on: A498
[51] = tested on: RXF 393
[52] = tested on: NCI/ADR-RES
[53] = tested on: OVCAR-8
[54] = tested on: MCF7
[55] = tested on: SF-539
[56] = tested on: NCI-H226
[57] = tested on: HCT-15
[58] = tested on: K562
[59] = tested on: TK-10

NNC(=S)N1CCN(C(=S)NN)CC1
GI50 [1]: 28.8 µM (inactive) | GI50 [2]: > 100 µM (inactive) | GI50 [3]: > 100 µM (inactive) | GI50 [4]: > 100 µM (inactive) | GI50 [5]: > 100 µM (inactive) | GI50 [6]: > 100 µM (inactive) | GI50 [7]: > 100 µM (inactive) | GI50 [8]: > 100 µM (inactive) | GI50 [9]: > 100 µM (inactive) | GI50 [10]: > 100 µM (inactive) | GI50 [11]: > 100 µM (inactive) | GI50 [12]: 58.1 µM (inactive) | GI50 [13]: > 100 µM (inactive) | GI50 [14]: > 100 µM (inactive) | GI50 [15]: > 100 µM (inactive) | GI50 [16]: 43.4 µM (inactive) | GI50 [17]: > 100 µM (inactive) | GI50 [18]: 13.7 µM (inactive) | GI50 [19]: > 100 µM (inactive) | GI50 [20]: > 100 µM (inactive) | GI50 [21]: > 100 µM (inactive) | GI50 [22]: > 100 µM (inactive) | GI50 [23]: > 100 µM (inactive) | GI50 [24]: > 100 µM (inactive) | GI50 [25]: > 100 µM (inactive) | GI50 [26]: > 100 µM (inactive) | GI50 [27]: > 100 µM (inactive) | GI50 [28]: > 100 µM (inactive) | GI50 [29]: > 100 µM (inactive) | GI50 [30]: 65.8 µM (inactive) | GI50 [31]: > 100 µM (inactive) | GI50 [32]: > 100 µM (inactive) | GI50 [33]: > 100 µM (inactive) | GI50 [34]: > 100 µM (inactive) | GI50 [35]: > 100 µM (inactive) | GI50 [36]: > 100 µM (inactive) | GI50 [37]: > 100 µM (inactive) | GI50 [38]: > 100 µM (inactive) | GI50 [39]: > 100 µM (inactive) | GI50 [40]: > 100 µM (inactive) | GI50 [41]: > 100 µM (inactive) | GI50 [42]: > 100 µM (inactive) | GI50 [43]: 32.4 µM (inactive) | GI50 [44]: > 100 µM (inactive) | GI50 [45]: > 100 µM (inactive) | GI50 [46]: > 100 µM (inactive) | GI50 [47]: > 100 µM (inactive) | GI50 [48]: > 100 µM (inactive) | GI50 [49]: > 100 µM (inactive) | GI50 [50]: 4.97 µM (inactive)

COc1cc2c(/C=C3/C(=O)Nc4ccc(Cl)cc43)c(Cl)n(Cc3ccccc3)c2cc1C
GI50 [1]: 1.95 µM (inactive) | GI50 [3]: 2.26 µM (inactive) | GI50 [4]: 2.43 µM (inactive) | GI50 [5]: 2.11 µM (inactive) | GI50 [6]: 2.72 µM (inactive) | GI50 [7]: 7.85 µM (inactive) | GI50 [8]: 3.32 µM (inactive) | GI50 [9]: 3.1 µM (inactive) | GI50 [51]: 2.31 µM (inactive) | GI50 [10]: 1.74 µM (inactive) | GI50 [12]: 3.57 µM (inactive) | GI50 [13]: 2.33 µM (inactive) | GI50 [14]: 2.51 µM (inactive) | GI50 [15]: 2.89 µM (inactive) | GI50 [16]: 3.29 µM (inactive) | GI50 [17]: 6.34 µM (inactive) | GI50 [18]: 4.19 µM (inactive) | GI50 [19]: 2.39 µM (inactive) | GI50 [52]: 3.86 µM (inactive) | GI50 [20]: 1.98 µM (inactive) | GI50 [21]: 2.22 µM (inactive) | GI50 [22]: 2.41 µM (inactive) | GI50 [23]: 2.97 µM (inactive) | GI50 [24]: 3.27 µM (inactive) | GI50 [25]: 2.04 µM (inactive) | GI50 [26]: 3.81 µM (inactive) | GI50 [27]: 2.48 µM (inactive) | GI50 [28]: 3.18 µM (inactive) | GI50 [29]: 5.89 µM (inactive) | GI50 [30]: 2.41 µM (inactive) | GI50 [31]: 2.3 µM (inactive) | GI50 [32]: 3.17 µM (inactive) | GI50 [53]: 2.59 µM (inactive) | GI50 [33]: 4.56 µM (inactive) | GI50 [34]: 8.26 µM (inactive) | GI50 [54]: 5 µM (inactive) | GI50 [55]: 2.94 µM (inactive) | GI50 [56]: 2.81 µM (inactive) | GI50 [35]: 2.51 µM (inactive) | GI50 [36]: 3.08 µM (inactive) | GI50 [37]: 5.51 µM (inactive) | GI50 [38]: 2.51 µM (inactive) | GI50 [39]: 6.21 µM (inactive) | GI50 [40]: 6.19 µM (inactive) | GI50 [41]: 2.59 µM (inactive) | GI50 [42]: 3.3 µM (inactive) | GI50 [43]: 3.93 µM (inactive) | GI50 [44]: 2.84 µM (inactive) | GI50 [45]: 3.9 µM (inactive) | GI50 [46]: 2.59 µM (inactive) | GI50 [57]: 4.01 µM | GI50 [47]: 6.73 µM (inactive) | GI50 [58]: 3.14 µM (inactive) | GI50 [49]: 2.81 µM (inactive) | GI50 [59]: 1.8 µM (inactive) | GI50 [50]: 2.65 µM (inactive)

O=C(O)CN1C(=O)C(Cc2ccc(O)cc2)N=C(c2cccc(O)c2)c2ccccc21 (configuration not stated)
GI50 [1]: > 100 µM (inactive) | GI50 [2]: 11.5 µM (inactive) | GI50 [3]: > 100 µM (inactive) | GI50 [4]: > 100 µM (inactive) | GI50 [5]: > 100 µM (inactive) | GI50 [6]: > 100 µM (inactive) | GI50 [7]: > 100 µM (inactive) | GI50 [9]: > 100 µM (inactive) | GI50 [10]: > 100 µM (inactive) | GI50 [12]: > 100 µM (inactive) | GI50 [13]: > 100 µM (inactive) | GI50 [14]: > 100 µM (inactive) | GI50 [16]: > 100 µM (inactive) | GI50 [17]: > 100 µM (inactive) | GI50 [18]: > 100 µM (inactive) | GI50 [19]: > 100 µM (inactive) | GI50 [20]: > 100 µM (inactive) | GI50 [21]: > 100 µM (inactive) | GI50 [22]: > 100 µM (inactive) | GI50 [24]: > 100 µM (inactive) | GI50 [25]: 40 µM (inactive) | GI50 [26]: > 100 µM (inactive) | GI50 [27]: > 100 µM (inactive) | GI50 [28]: 80.4 µM (inactive) | GI50 [29]: > 100 µM (inactive) | GI50 [31]: > 100 µM (inactive) | GI50 [32]: > 100 µM (inactive) | GI50 [53]: > 100 µM (inactive) | GI50 [33]: > 100 µM (inactive) | GI50 [34]: > 100 µM (inactive) | GI50 [54]: > 100 µM (inactive) | GI50 [55]: > 100 µM (inactive) | GI50 [56]: > 100 µM (inactive) | GI50 [35]: > 100 µM (inactive) | GI50 [36]: > 100 µM (inactive) | GI50 [37]: > 100 µM (inactive) | GI50 [38]: > 100 µM (inactive) | GI50 [39]: > 100 µM (inactive) | GI50 [40]: > 100 µM (inactive) | GI50 [41]: > 100 µM (inactive) | GI50 [42]: > 100 µM (inactive) | GI50 [43]: > 100 µM (inactive) | GI50 [45]: > 100 µM (inactive) | GI50 [46]: 19 µM (inactive) | GI50 [57]: > 100 µM | GI50 [47]: > 100 µM (inactive) | GI50 [58]: > 100 µM (inactive) | GI50 [48]: > 100 µM (inactive) | GI50 [49]: > 100 µM (inactive) | GI50 [59]: > 100 µM (inactive) | GI50 [50]: 12 µM (inactive)
